Measured values: patent US8187573B2, “In vivo detection of apoptosis” (priority 2005, dated 2012)
“Also recorded” adds a separate entry of the source.

Columns and labels:
[1] = tested on: SCK tumor cells; experiment: Flow cytometry of cells from SCK tumors after in vivo FAM-VAD-FMK labelling; parameters: species or system mouse; conditions: 8.0 mg/kg ATO
Method: In another set of mice, the tumors were allowed to grow for 7 days. Control mice received placebo injections as before and test mice received ATO injections as before. After 24 hours all mice received I.V. injections of FAM-VAD-FMK as before. The in vivo apoptosis detection and imaging reagent was allowed to circulate through each mouse for 30 minutes. After imaging tumor-associated apoptosis in vivo, tumor tissue was collected from the window chamber by scraping the tumor out of the chamber into a trypsin solution, stirring for 30 minutes with 10 μg/ml DNase and 5 μg/ml collagenase, filtering the suspension using a […] cell strainer. Flow cytometry was then performed using a FACS Caliber flow cytometer (Becton Dickinson Immunocytometry System, San Jose, Calif.) for the analysis of apoptosis in the cell population obtained from the window chamber. All data was acquired with an event acquisition set for 10,000 events. Data was analyzed using CellQuest Pro cytometer software.

[2] = tested on: SCK mammary tumors; experiment: SCK mammary tumor window chamber model, in vivo apoptosis imaging with FAM-VAD-FMK (488 nm, FITC filter); parameters: species or system A/J mice; conditions: 8.0 mg/kg ATO, 8 μg FAM-VAD-FMK IV, 30 min circulation
Method: (§1) Using a mouse window chamber model, SCK mammary tumors were evaluated for levels of apoptosis induction in tumors following irradiation treatment with arsenic trioxide (ATO) and heat. A window chamber, used for viewing tumors, was placed over a fold of skin in A/J mice. 2×10^5 SCK mammary carcinoma cells were injected into the skin fold. The tumors were allowed to grow for 7 to 9 days. In the test mice, tumors were irradiated with 20 Gy, 8 mg/kg ATO and 2 hours later the tumors were heated at 41.5° C. for 60 minutes. Control mice were not treated with irradiation or heat and a placebo was injected instead of ATO.
(§2) After allowing the tumors to grow 7 days, the test mice were first irradiated with 20 Gy. This was immediately followed by an intraperitoneal (I.P.) injection of ATO. The ATO was dissolved in water and injected in a solution of PBS with 5% w/v of dextrose at a concentration of 8 mg/kg. After 2 hours the tumors were heated at 41.5° C. for 60 minutes. Control mice received an I.P. injection of PBS with 5% dextrose.
Apoptosis was detected by injecting the in vivo apoptosis detection reagent FAM-VAD-FMK into the tail vein of control and test mice. […]
Control mice were given FAM-VAD-FMK injections following placebo injections. […] Test mice that received ATO treatment were given FAM-VAD-FMK injections at 3 hours and 24 hours after ATO treatment, and apoptosis was evaluated as before. […]

[3] = tested on: SCK mammary tumors; experiment: SCK mammary tumor window chamber model, bright-field imaging of hemorrhaging; format: in vivo, A/J mice; conditions: 8.0 mg/kg ATO
Method: as §1, §2
Prior to treatment, tumors were examined in control mice and designated test mice. Low magnification bright-field image composite photographs of SCK mammary tumors taken through a window chamber reveal a low level of hemorrhaging in all tumors (FIG. 1). […]

[4] = tested on: FSaII murine fibrosarcoma tumors; experiment: Longitudinal apoptosis imaging of FSaII tumor in dorsal skin flap chamber (DSFC) with FAM-VAD-FMK; format: in vivo, nu/nu mice
Method: A longitudinal study was performed in nu/nu mice to assess the efficacy of arsenic trioxide (ATO) on FSaII murine fibrosarcoma tumors before and after ATO treatment through a window chamber.
Dorsal skin flap chambers (DSFC) were surgically implanted into the backs of nu/nu mice as follows. Entire implantation procedure was conducted within a laminar flow hood to preserve a sterile field. Skin was washed twice with betadine and allowed to dry. One sterilized chamber piece containing a round window (9 mm) was placed on one side of the dorsal skin fold. Holes for three connecting screws were made through the skin fold connecting with another chamber piece with a similar window. The assembly was then tightened together with screws and nuts through the chamber piece spacers. A circle of cutaneous tissue and fascia was carefully cut away from the skin fold inside the DSFC window, exposing the blood vessels of the subcutaneous tissue adjacent to the striated muscles of the opposing skin fold. Antibiotic ointment (bacitracin zinc/polymyxin B sulfate/neomycin sulfate) was used on the edges of the wound inside the DSFC window. A glass window was placed in the chamber to cover the exposed tissue and secured with a snap C-ring. The surgical wound procedure was then repeated in the opposite DSFC window so that a very thin, transparent layer of fascia and vessels remained visible through both windows (created to facilitate microscope light transmission through the tissue). Finally, the chamber was sutured to the skin.
After surgery, the animals were housed in barrier cages inside a humidified incubator maintained at 32° C. with unrestricted access to food and water. To minimize risk of infection, all mice were given amoxicillin in their drinking water (250 mg per 5 mL water) after DSFC implantation and throughout the experiment.
Tumor cells were implanted into one side of the chamber by temporary removal of the C-ring and glass cover slip. […]

[5] = tested on: Spleen, Liver, Thymus, and CNS tissues; experiment: In vivo detection of morphine-mediated apoptosis: apoptosis positive cell counts in tissue sections after IV FAM-VAD-FMK; conditions: bone marrow and liver tissues (conclusion)
Method: Spleen, Liver, Thymus, and CNS tissues were isolated from different treatment groups, frozen and mounted on glass slides. The various cell types were adjusted to 1×10^6 cells/mL and cytospun on a glass slide for analysis by fluorescence microscopy. Sections were photographed and analyzed by MetaMorph analysis program for apoptosis positive cell counts. Counts were analyzed by statistics software.
Spleen, Liver, Thymus, and CNS tissues were isolated from different treatment groups, frozen and mounted on glass slides. Sections were photographed and analyzed by MetaMorph analysis program for apoptosis positive cell counts. Counts were analyzed by statistics software.

**Q.** With arsenic trioxide [ATO] as the compound, how does the “apoptotic cells (apoptosis induction rate)” value ([1]; 24 hours after treatment, flow cytometry, 10,000 events, control mouse 18%) read?
**A.** The value was 39%.

**Q.** What about the “increase in apoptosis versus control mouse” value ([1]; 24 hours, flow cytometry) of the same compound?
**A.** The value was “two-fold increase”.

**Q.** What about the “level of apoptosis in tumor (fluorescence)” value ([2]; 3 hours post ATO) of the same compound?
**A.** Its value is “substantial increase in the level of apoptosis; also recorded: high level of apoptosis”.

**Q.** What about the “level of apoptosis in tumor (fluorescence)” value ([2]; 24 hours post ATO) of the same compound?
**A.** Its value is “even higher; also recorded: higher level of apoptosis”.

**Q.** And the “level of hemorrhaging in tumor” value ([3]; 3 hours after completion of treatment, vs placebo control)?
**A.** The value was “Increased levels of hemorrhaging”.

**Q.** And the “level of hemorrhaging in tumor” value ([3]; 24 hours after completion of treatment, vs 3 hour photograph)?
**A.** Its value is “amount of hemorrhaging has also increased over time”.

**Q.** What about the “level of apoptosis in tumor (fluorescence, 10×)” value ([4]; 8.0 mg/kg ATO IP, 3 hours post ATO, 12.0 μg FAM-VAD-FMK IV, 45 min, same tumor before vs after) of the same compound?
**A.** The value was “significant level of apoptosis; also recorded: increase in apoptosis within the tumor is clear”.

**Q.** How did the “in vivo detection of apoptosis in living tissue” value ([4]; IV injection) turn out when “carboxyfluorescein-valanyl-alanyl-aspartyl(O-methyl)-fluoromethyl ketone [FAM-VAD-FMK]” was run?
**A.** The value was “works for the in vivo detection of apoptosis”.

**Q.** What about the “side-effects of the reagent in longitudinal studies” value ([4]; IV injection, repeated in the same animal) of the same compound?
**A.** Its value is “no side-effects”.

**Q.** How did the “enhancement of apoptosis of LPS activated cells” value [5] turn out when CN1CC[C@]23c4c5ccc(O)c4O[C@H]2[C@@H](O)C=C[C@H]3[C@H]1C5 [Morphine, morphine] was run?
**A.** Its value is “enhanced apoptosis of LPS activated cells”.
